PMC10201364 (MicrobiologyOpen, 2023)

Assays:
[1] = target: Ah‐BarR trunc (P ah‐barR promoter, mKate2 reporter) (Acidianus hospitalis, UniProt F4B5V3)
Procedure: (§1) Reporter gene assays were performed as previously described (Bernauw et al., [2022]). pPRC6 and pITC variants (Table 1) were co‐transformed in E. coli MG1655 chemical competent cells using heat shock transformation. Transformant colonies of the Ah‐BarR biosensor strains were picked to inoculate wells of a transparent 96‐well plate (Greiner Bio‐One), each well filled with 200 µL of MOPS EZ Rich Defined medium (Teknova), prepared without the addition of the 5X EZ Supplement, after which the plate was incubated overnight in a ThermoMixer C (Eppendorf) at 30°C and 300 rpm. Next, a black 96‐well plate was filled with a naringenin solution prepared in ethanol (250 mg/L or 2.5 g/L), after which a Breathe‐Easy sealing membrane (Sigma‐Aldrich) was applied and the ethanol was evaporated in a ThermoMixer C (Eppendorf) at 75°C. […] Finally, the plate was sealed again using a Breathe‐Easy sealing membrane (Sigma‐Aldrich).
(§2) Plates were incubated at 30°C and 300 rpm for 40 h in a Synergy H1 microplate reader (BioTek) with measurements of OD600 and fluorescence (excitation wavelength: 588 nm, emission wavelength: 633 nm) being taken every 20 min. The gain was set to 140 for all measurements, except for the measurements with the amino acids (pools and separately), where the gain was set to 150. […] In addition, wells solely containing medium were measured as well to correct for the background signal.
(§3) Reporter expression was analyzed at t = 30 h, when all cultures had reached the stationary phase, by taking into account three subsequent time points (t–1, t, t+1). The corrected FL/OD600 value was calculated for each replicate (n = 4) as follows: FL/ODcor=FLt−1−FLmed,t−1/ODt−1−ODmed,t−1+FLt−FLmed,t/ODt−ODmed,t+FLt+1−FLmed,t+1/ODt+1−ODmed,t+1/3
(§4) Response curves were fitted to a Hill function of the shape P(M)=b+aM^n/θ^n+M^nforaβ−alanine−inducible responseb+aθ^n/θ^n+M^nforaβ−alanine−repressible response according to a previously published procedure (Landry et al., [2018]) with minor adaptations. […] Briefly, lmfit 1.1.0 was used to fit all replicates of a response curve to the appropriate Hill function using the Levenberg‐Marquardt algorithm (Moré, [1978]; Newville et al., [2016]). […] The dynamic range was estimated as μ=a/b .

[2] = target: Ah‐BarR (S. acidocaldarius promoter P sa‐barR, mKate2 reporter) (Acidianus hospitalis, UniProt F4B5V3); assay: cell-based
Chain of Ah‐BarR (S. acidocaldarius promoter P sa‐barR, mKate2 reporter) (F4B5V3 1-165): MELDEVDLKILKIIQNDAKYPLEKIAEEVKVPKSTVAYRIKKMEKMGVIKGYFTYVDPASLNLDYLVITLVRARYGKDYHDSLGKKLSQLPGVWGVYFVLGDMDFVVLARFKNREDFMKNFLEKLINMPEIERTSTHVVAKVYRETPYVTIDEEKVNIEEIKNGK
Procedure: as §1, §2, §3, §4
Additional in vivo experiments were performed on strains BS3 and BS4 using the S. acidocaldarius promoters P sa‐barR and P sa‐at , respectively, in combination with Ah‐BarR.

[3] = BS3, β‐alanine 0–10 mM, 20 mg/L naringenin, Hill fit

Chain of Ah‐BarR trunc (P ah‐barR promoter, mKate2 reporter) (F4B5V3 entry or part of it): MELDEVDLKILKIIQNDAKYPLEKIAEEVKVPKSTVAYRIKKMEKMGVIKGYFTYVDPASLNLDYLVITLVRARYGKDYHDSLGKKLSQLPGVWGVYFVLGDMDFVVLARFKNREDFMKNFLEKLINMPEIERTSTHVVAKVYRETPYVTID

NCCC(=O)O [β‐alanine]
Basal fluorescence output b [1]: 2485 RFU
Dynamic range µ [1]: 3.56
Hill coefficient n [1]: 1.60
Maximum fluorescence increase a [1]: 8840 RFU
EC50 ([1]; read-out: Threshold θ, BS1 trunc, 20 mg/L naringenin): 260 µM
EC50 [2]: 100 µM
Hill coefficient n ([2]; BS3, 20 mg/L naringenin): 2.00
Dynamic range µ ([2]; BS3, µ = a/b): 1.17
Basal fluorescence output b [2, 3]: 4595 RFU
Maximum fluorescence increase a [2, 3]: 5355 RFU
